The assay has as its system anti-VCAp18 antibodies of EBV-positive sera. Briefly: Measurement of the binding affinity to the antibody (method of FRIGUET, ELISA inhibition by soluble VCAp18/SEQ ID No. 2). The settings on record: increasing concentrations of soluble peptide. Also on record: species or system human. As for the experimental part: The specificity of the binding of the positive sera to the different mixotopes in solid phase is evaluated by the absorption of the antibodies by the native antigen VCAp18/SEQ ID No. 2 in solution, using the method of B. FRIGUET et al. (J. Immunol. Methods, 1985, 77, 305-319).
This method is based on the measurement of the free antibody concentration by an indirect ELISA method when the antigen VCAp18/SEQ ID No. 2 and the antibodies are in equilibrium in solution.
The antigen VCAp18/SEQ ID No. 2, at different concentrations (10^−10 M to 2×10^−6 M), is first incubated in solution (PBS-T buffer+2% BSA) with an EBV-positive serum, at a constant concentration (1/50) until the equilibrium state is reached. […]
After washing with PBS-T buffer, the bound immunoglobulins are detected by addition of peroxidase-coupled goat antibodies anti-human IgG-A-Ms.
This method gives the displacement curves for the A/Ao bond relative to log(ao). A precise estimation of the mean affinity of the serum containing the anti-VCAp18 antibodies is given by the equation Ao/(Ao−A)=1/ν=1+Kd/ao, in which ao is the total soluble antigen concentration, A and Ao are the absorbance values at 492 nm with or without blocking antigen, respectively, and ν is the bound antibody fraction, if the different conditions set out in FRIGUET et al. are satisfied.
A general note: ELISA stands for enzyme-linked immunosorbent assay.

Consider “CAVDTGSGGGGQPHDTAPRGARKKQ [VCAp18/SEQ ID No. 2]”, for which the “inhibition of the binding of the human sera to the 3 mixotopes in solid phase” value was “specifically and strongly inhibited”.
